Data on two compounds can be found in PubChem BioAssay AID1963954.

Calls of active or inactive are those of the source.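 The calls were made as follows: active = IL-1b release lowered by over 30% against vehicle-treated cells of the same ATG16L1 genotype; inactive = the rest.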

The subject of the experiment is mouse BMDM IL-1b secretion, LPS+ATP, ELISA. The experiment in a line: inhibitors of IL-1b release from macrophages, cell-based, mouse BMDMs, ATG16L1 wt and T300A, LPS+ATP (AID 1963954). As to conditions: at 40 µM, stronger effect = lower value.

For the compound `CS(C)=O`, the normalized IL-1b secretion is 0.05 (inactive) (unstimulated, ATG16L1 T300A); 0 (inactive) (unstimulated, ATG16L1 wt); 1.39 (inactive) (with LPS + ATP, ATG16L1 T300A); 1 (inactive) (with LPS + ATP, ATG16L1 wt).

For `CCC(C)(C)C(=O)C(=O)N1CCCC[C@H]1C(=O)N[C@H](CCc1ccc(OC)cc1)C(=O)N1[C@@H]2CC[C@H]1CC(Nc1nc(NCCc3sc(N)nc3C)nc(N3CCn4ncnc4C3)n1)C2` (stereo partly specified), the normalized IL-1b secretion is 0.39 (with LPS + ATP, ATG16L1 T300A) and 0.37 (with LPS + ATP, ATG16L1 wt).
